The compounds below were run against Drp1 (Homo sapiens (Human), UniProt O00429) (assay: Drp1 Activity Screen: colorimetric (malachite green) GTPase assay). Conditions: GTPase activity; 0.6 μM Drp1 preincubated with 0.1 mg/mL liposomes, 1 mM GTP, 20 min at 37° C.
Format: biochemical
Method: The GTPase activity of Drp1 was assayed using a colorimetric assay similar to as described previously by Leonard M. et al. “Robust colorimetric assays for dynamin's basal and stimulated GTPase activities.” Methods Enzymol. […] Briefly, for GTPase assays of purified Drp1 inhibitor samples, 0.6 μM Drp1 preincubated with 0.1 mg/mL liposomes (consisting of 80% soybean lipids/20% cardiolipin) and inhibitor was added to 1 mM GTP in a microtiter plate for 20 min at 37° C. in 4 mM MgCl2, 10 mM Hepes (pH 7.0), 100 mM KCl, 1 mM DTT. Reactions were stopped by diluting with 0.5 mM EDTA. Samples were then incubated with malachite green reagent (1 mM malachite green and 50 mM ammonium molybdate in 1 N HCl), and the absorbance at 650 nm was measured. The reaction rates, IC50 values, and max % inhibition were determined using Excel/GraphPad Prism software.

Drp1, sequence (O00429 whole entry): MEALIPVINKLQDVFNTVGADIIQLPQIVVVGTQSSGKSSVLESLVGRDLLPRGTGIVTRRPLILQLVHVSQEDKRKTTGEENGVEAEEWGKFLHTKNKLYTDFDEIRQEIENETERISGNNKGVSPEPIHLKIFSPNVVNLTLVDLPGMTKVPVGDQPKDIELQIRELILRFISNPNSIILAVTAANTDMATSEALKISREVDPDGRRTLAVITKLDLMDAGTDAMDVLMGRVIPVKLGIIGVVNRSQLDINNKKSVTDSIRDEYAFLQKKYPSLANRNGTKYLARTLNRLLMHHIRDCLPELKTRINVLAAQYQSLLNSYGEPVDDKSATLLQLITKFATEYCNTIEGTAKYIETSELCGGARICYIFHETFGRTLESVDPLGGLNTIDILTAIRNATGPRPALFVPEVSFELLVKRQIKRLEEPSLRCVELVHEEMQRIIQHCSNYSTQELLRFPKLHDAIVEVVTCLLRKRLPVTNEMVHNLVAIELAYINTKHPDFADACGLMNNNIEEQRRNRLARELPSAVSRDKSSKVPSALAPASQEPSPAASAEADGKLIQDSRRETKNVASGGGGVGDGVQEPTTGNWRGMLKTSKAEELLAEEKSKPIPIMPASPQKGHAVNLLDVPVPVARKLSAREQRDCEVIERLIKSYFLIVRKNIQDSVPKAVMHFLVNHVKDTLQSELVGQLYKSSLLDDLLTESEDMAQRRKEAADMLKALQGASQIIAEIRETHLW

Question: How did the IC50 turn out when `Cc1cc(C(=O)Nc2ccc(C(=O)O)c(F)c2)n(Cc2csc(N3CCCCC3)n2)c1` [Compound A-57, 2-fluoro-4-(4-methyl-1-((2-(piperidin-1-yl)thiazol-4-yl)methyl)-1H-pyrrole-2-carboxamido)benzoic Acid] was run?
Answer: 2800 nM

Question: `Cc1cc(C(=O)Nc2ccc3ccccc3c2)n(Cc2csc(N3CCCCC3)n2)c1` [Compound A-23, 4-methyl-N-(naphthalen-2-yl)-1-((2-(piperidin-1-yl)thiazol-4-yl)methyl)-1H-pyrrole-2-carboxamide] was tested. Which IC50 did it give?
Answer: 1600 nM

Question: How did the IC50 turn out when `Cc1cc(C(=O)Nc2ccc(C(=O)O)cc2)n(Cc2cccc(N3CCCCC3)n2)c1` [Compound A-16, 4-(4-methyl-1-((6-(piperidin-1-yl)pyridin-2-yl)methyl)-1H-pyrrole-2-carboxamido)benzoic Acid] was run?
Answer: 1700 nM

Question: Which IC50 does the source give for `Cc1cc(C(=O)NC2CCCCC2)n(Cc2csc(N3CCCCC3)n2)c1` [Compound A-26, N-cyclohexyl-4-methyl-1-((2-(piperidin-1-yl)thiazol-4-yl)methyl)-1H-pyrrole-2-carboxamide] here?
Answer: 1700 nM

From US11168080B2, “Dynamin-1-like protein inhibitors” (Mitobridge, Inc., priority 2017, dated 2021)
